Experimental data published in patent publication US6262064A, “Octahydrobenzo[f]quinoline-based receptor agonists and antagonists” (priority 1999, dated 2001).
Read-outs that look alike come from different tables or passages of the source.

Tests used:
5HT2 serotonin receptor = biological target: T1, 5HT2 serotonin receptor (Rattus norvegicus, UniProt P14842); experiment: Serotonin (5HT2) binding assay ([3H]Ketanserin)
T1 construct: rat cortical membranes; from tissue; host or cells: rat cortex membranes
Procedure: The final ligand concentration was 1.0 nM.

D2 dopamine receptor = biological target: T2, D2 dopamine receptor (Rattus norvegicus, UniProt P61169); experiment: Dopamine D2 binding assay ([3H]Sulpiride); conditions: for dopamine receptor binding affinity / selectivity for the D2 over the D1 dopamine receptor: in words
T2 construct: rat striatal membranes; from tissue; host or cells: rat striatum membranes
Procedure: The final ligand concentration was 0.5 nM.

[1] = biological target: alpha2-adrenergic receptor; experiment: Alpha2-adrenergic (non-selective) binding assay ([3H]RX 781094); design: species or system rat; conditions: for α2 receptor binding affinity: in words
5HT1A serotonin receptor = biological target: T3, 5HT1A serotonin receptor (Bos taurus, UniProt F6Q2H9); experiment: Serotonin (5HT1A) binding assay ([3H]-8-OH-DPAT); design: species or system bovine; conditions: for 5HT1A serotonin receptor binding affinity: in words
T3 construct: bovine hippocampus; from tissue; host or cells: bovine hippocampus
T3 sequence (F6Q2H9 1-422): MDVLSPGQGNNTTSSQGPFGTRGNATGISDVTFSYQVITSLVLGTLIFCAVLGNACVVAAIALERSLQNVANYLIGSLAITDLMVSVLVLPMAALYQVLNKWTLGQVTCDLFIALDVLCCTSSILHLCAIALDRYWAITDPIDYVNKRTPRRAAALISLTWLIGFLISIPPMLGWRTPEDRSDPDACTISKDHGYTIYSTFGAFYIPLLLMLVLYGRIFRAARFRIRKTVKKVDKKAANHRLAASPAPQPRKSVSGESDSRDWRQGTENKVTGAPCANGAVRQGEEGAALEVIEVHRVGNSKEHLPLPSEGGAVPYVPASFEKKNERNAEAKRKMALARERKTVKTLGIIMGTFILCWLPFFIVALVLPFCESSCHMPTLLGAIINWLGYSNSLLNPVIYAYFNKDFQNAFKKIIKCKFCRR

[2] = tested on: alpha1-adrenergic receptor; conditions: for α1 receptor binding affinity: in words
Procedure: In these assays, the binding reaction was initiated by the addition of varying concentrations of the potential binding composition and a radioligand to an appropriate tissue. The assay was then incubated to allow binding. Binding was then terminated by dilution of the assay with a cold buffer, followed by rapid vacuum filtration onto Whatman GI/C filters that were presoaked in 0.1% polyethylene imine for at least 3 hours. Radioactivity trapped onto the filters was determined and compared to control values in order to ascertain any interactions of test compounds with the binding sites. Binding affinity analyses were performed by Novascreen, Division of the Adheron Corporation, Hanover, Md.
Incubation was conducted in 50 mM TRIS-HCl (pH 7.7) at 25° C. for 60 minutes. […] The final ligand concentration was 0.5 nm.

5HT3 serotonin receptor = experiment: Serotonin (5HT3) binding assay ([3H]GR65630, NIE-115 neuroblastoma cells)
Procedure: The binding affinities of the compositions of this invention were assayed for various receptors. In these assays, the binding reaction was initiated by the addition of varying concentrations of the potential binding composition and a radioligand to an appropriate tissue. The assay was then incubated to allow binding. Binding was then terminated by dilution of the assay with a cold buffer, followed by rapid vacuum filtration onto Whatman GI/C filters that were presoaked in 0.1% polyethylene imine for at least 3 hours. Radioactivity trapped onto the filters was determined and compared to control values in order to ascertain any interactions of test compounds with the binding sites.
Incubation was conducted in 20 mM HEPES (pH 7.4) containing 150 mM NaCl at 25° C. for 30 minutes. The radioligand used was [^3 H]GR65630 (30-50 Ci/mmol). The final ligand concentration was 0.7 nM.

D2 receptor = biological target: T4, D2 receptor (Rattus norvegicus, UniProt P61169); experiment: D2 receptor agonist evaluation (membrane binding with and without Gpp(NH)p); conditions: for D2 agonist/antagonist assessment / effect of GTP on D2 receptor binding: in words
T4 construct: expressed in transfected cells
Procedure: To determine the D2, D3 or D4 receptor selectivity, competition binding assays were performed using membranes from fibroblast cell lines transfected with D2444 (rat), D3 (human) or D4 (rat) receptors. All cell lines were maintained in Dulbecco's modified Eagle's media (DMEM) supplemented with 10 % fetal bovine serum at 37° C. with 5% CO2. Transfected cells were maintained in DMEM containing 300 μg/mL of the antibiotic G418 (Gibco).
To determine whether or not compounds of this invention were D2 receptor agonists, a membrane binding assay, utilizing the D2 cell line described in Example 26, was performed in the presence and absence of the non-hydrolyzable guanine nucleotide (GTP analogue) Gpp(NH)p.

beta-adrenergic receptor = experiment: Beta-adrenergic (non-selective) binding assay ([3H]DHA); design: species or system rat
5HT1 serotonin receptor = experiment: Serotonin (5HT1) binding assay
Procedure: In these assays, the binding reaction was initiated by the addition of varying concentrations of the potential binding composition and a radioligand to an appropriate tissue. The assay was then incubated to allow binding. Binding was then terminated by dilution of the assay with a cold buffer, followed by rapid vacuum filtration onto Whatman GI/C filters that were presoaked in 0.1% polyethylene imine for at least 3 hours. Radioactivity trapped onto the filters was determined and compared to control values in order to ascertain any interactions of test compounds with the binding sites.
Incubation was conducted in 50 mM TRIS-HCl (pH 7.4) at 45 minutes for 37° C. The radioligand used was [^3 H]Hydroxytryptamine binoxalate (15-30 Ci/mmol). The final ligand concentration was 3.0 nM.

D1 dopamine receptor = biological target: T5, D1 dopamine receptor (Rattus norvegicus, UniProt P18901); experiment: Dopamine D1 binding assay ([3H]SCH 23390); conditions: Table III; rat striatal membranes; read-out: D1 receptor binding affinity Ki
T5 construct: rat striatal membranes; from tissue; host or cells: rat striatum membranes
Procedure: The final radioligand concentration was 0.5 nM.

[3] = Table III, rat cortical membranes, read-out: α2 receptor binding affinity Ki
[4] = Table III, bovine hippocampus, read-out: 5-HT1A receptor binding affinity Ki
[5] = read-out: α1 receptor binding affinity Ki, Table III, rat forebrain membranes
[6] = Table VIII, read-out: Ki of reference compounds, 5HT1A
[7] = read-out: Ki of reference compounds, 5HT3, Table X
[8] = Table XV, with Gpp(NH)p, read-out: D2 receptor binding Ki with Gpp(NH)p
[9] = Table VI, read-out: Ki of reference compounds, beta-adrenergic
[10] = Table V, read-out: Ki of reference compounds, alpha2-adrenergic
[11] = read-out: Ki of reference compounds, 5HT1, Table VII
[12] = read-out: 5-HT1 receptor binding affinity Ki, Table III, rat cortical membranes
[13] = 5-HT2 receptor binding affinity Ki
[14] = Table III, rat striatal membranes, read-out: D2 receptor binding affinity Ki
[15] = 5-HT1A receptor binding affinity Ki, Table III, bovine hippocampus

T1 sequence (P14842 whole entry): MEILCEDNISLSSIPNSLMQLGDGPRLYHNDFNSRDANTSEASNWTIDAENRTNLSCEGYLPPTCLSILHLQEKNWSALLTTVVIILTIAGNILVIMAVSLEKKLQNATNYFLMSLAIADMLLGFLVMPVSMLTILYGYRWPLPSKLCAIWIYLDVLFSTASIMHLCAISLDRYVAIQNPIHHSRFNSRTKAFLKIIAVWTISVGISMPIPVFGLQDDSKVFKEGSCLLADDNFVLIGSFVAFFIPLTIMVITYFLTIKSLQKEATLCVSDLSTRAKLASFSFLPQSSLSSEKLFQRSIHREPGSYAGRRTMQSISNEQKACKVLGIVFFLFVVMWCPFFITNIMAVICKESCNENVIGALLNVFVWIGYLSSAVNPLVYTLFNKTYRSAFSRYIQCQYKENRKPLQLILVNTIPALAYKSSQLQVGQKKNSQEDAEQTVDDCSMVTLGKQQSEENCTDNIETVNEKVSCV
T4 sequence (P61169 whole entry): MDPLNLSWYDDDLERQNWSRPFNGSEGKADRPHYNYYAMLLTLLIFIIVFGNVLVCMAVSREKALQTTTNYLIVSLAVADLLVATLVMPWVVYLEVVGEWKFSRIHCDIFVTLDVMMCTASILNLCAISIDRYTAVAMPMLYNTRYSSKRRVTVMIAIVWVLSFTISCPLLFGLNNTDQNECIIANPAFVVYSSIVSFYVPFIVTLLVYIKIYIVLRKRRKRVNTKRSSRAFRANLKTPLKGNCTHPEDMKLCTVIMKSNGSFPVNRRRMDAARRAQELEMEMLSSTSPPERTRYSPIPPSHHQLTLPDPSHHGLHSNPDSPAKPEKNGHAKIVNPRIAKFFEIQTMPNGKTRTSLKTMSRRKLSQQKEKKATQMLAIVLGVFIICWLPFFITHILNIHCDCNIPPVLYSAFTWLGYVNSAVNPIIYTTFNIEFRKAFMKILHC
T2 sequence (P61169 whole entry): as above
T5 sequence (P18901 whole entry): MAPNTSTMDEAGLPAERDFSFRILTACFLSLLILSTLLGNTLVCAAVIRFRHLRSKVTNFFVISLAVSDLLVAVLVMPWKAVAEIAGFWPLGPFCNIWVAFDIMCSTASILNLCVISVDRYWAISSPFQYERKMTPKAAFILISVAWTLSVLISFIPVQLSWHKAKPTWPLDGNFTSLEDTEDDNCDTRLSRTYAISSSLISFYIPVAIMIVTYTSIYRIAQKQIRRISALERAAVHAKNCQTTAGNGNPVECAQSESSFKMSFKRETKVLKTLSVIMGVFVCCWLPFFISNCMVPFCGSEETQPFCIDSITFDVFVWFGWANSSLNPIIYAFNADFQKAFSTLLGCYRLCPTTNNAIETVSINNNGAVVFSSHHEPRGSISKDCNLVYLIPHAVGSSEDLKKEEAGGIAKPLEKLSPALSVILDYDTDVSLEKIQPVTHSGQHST

SMILES: Oc1cccc2c1CC[C@@H]1[C@@H]2CCCN1CCc1cccs1 (relative stereo) [trans-31]
- Ki (5HT2 serotonin receptor): 80 nM
- 5HT2 serotonin receptor binding affinity (5HT2 serotonin receptor; in words): high binding affinities for the 5HT2 serotonin receptor
- Ki (D2 dopamine receptor): 1.9 nM
- dopamine receptor binding affinity (D2 dopamine receptor): good dopamine receptor binding affinities
- selectivity for the D2 over the D1 dopamine receptor (D2 dopamine receptor): highly selective for the D2 dopamine receptor over the D1 dopamine receptor
- Ki [1, 3]: 7.2 nM
- α2 receptor binding affinity [1]: high binding affinities for the α2 receptor
- Ki (5HT1A serotonin receptor; [4]): 36 nM
- 5HT1A serotonin receptor binding affinity (5HT1A serotonin receptor): high binding affinities for the 5HT1A serotonin receptor
- α1 receptor binding affinity [2]: high binding affinities for the α1 receptor
- Ki [2, 5]: 17 nM

SMILES: O=C(c1ccc(F)cc1)C1CCN(CCn2c(=O)[nH]c3ccccc3c2=O)CC1 [Ketanserin, reference compound]
- Ki (5HT1A serotonin receptor; [6]): > 10000 nM

SMILES: c1ccc2nc(N3CCNCC3)ccc2c1 [Quipazin]
- Ki (5HT3 serotonin receptor; [7]): 1.5 nM

SMILES: Oc1cccc2c1CC[C@H]1[C@@H]2CCCN1CCc1ccccc1 (relative stereo) [cis-25, Cis-7-hydroxy-4-phenethyl-1,2,3,4,4a,5,6,10b-octahydrobenzo[f]quinoline]
- Ki (D2 dopamine receptor): 6.6 nM
- dopamine receptor binding affinity (D2 dopamine receptor): good dopamine receptor binding affinities
- selectivity for the D2 over the D1 dopamine receptor (D2 dopamine receptor): highly selective for the D2 dopamine receptor over the D1 dopamine receptor
- Ki [1, 3]: 0.27 nM
- α2 receptor binding affinity [1]: high binding affinities for the α2 receptor
- α1 receptor binding affinity [2]: high binding affinities for the α1 receptor
- Ki [2, 5]: 16 nM
- Ratio of +:- Gpp(NH)p (D2 receptor; Table XV): 1.07
- Ki (D2 receptor; [8]): 176 ± 213 nM
- Ki (D2 receptor; Table XV, without Gpp(NH)p, read-out: D2 receptor binding Ki without Gpp(NH)p): 164 ± 51 nM
- D2 agonist/antagonist assessment (D2 receptor): appear to be an antagonist
- effect of GTP on D2 receptor binding (D2 receptor): the addition of GTP did not significantly affect receptor binding affinity

SMILES: CC(C)NCC(O)COc1cccc2[nH]ccc12 (stereo not drawn) [Pindolol]
- Ki (beta-adrenergic receptor; [9]): 1.1 nM

SMILES: Cc1ccc(N(CC2=NCCN2)c2cccc(O)c2)cc1 [Phentolamine, reference compound]
- Ki [1, 10]: 1.7 nM

SMILES: COc1cccc(OC)c1OCCNCC1COc2ccccc2O1 (stereo not drawn) [WB4101, reference compound]
- Ki ([2]; read-out: Ki of reference compounds, alpha1-adrenergic, Table IV): 2.6 nM

SMILES: CCCN(CCC)C1CCc2cccc(O)c2C1 (stereo not drawn) [8-OH-DPAT, reference compound]
- Ki (5HT1A serotonin receptor; Ki characterizing the 5HT1A assay, assay characterization): 2 nM
- Ki (5HT1A serotonin receptor; [6]): 1.4 nM

SMILES: C=CCc1ccccc1OCC(O)CNC(C)C (stereo not drawn) [Alprenolol]
- Ki (beta-adrenergic receptor; [9]): 3.5 nM
- Ki (beta-adrenergic receptor; assay characterization, read-out: Ki characterizing the beta assay): 1.74 nM

SMILES: NCCc1c[nH]c2ccc(O)cc12 [Serotonin, reference compound]
- Ki (5HT1 serotonin receptor; read-out: Ki characterizing the 5HT1 assay, assay characterization): 2.8 nM
- Ki (5HT1 serotonin receptor; [11]): 4.6 nM
- Ki (5HT3 serotonin receptor; [7]): 18.7 nM

SMILES: COc1ccc2[nH]cc(CCN)c2c1 [5-Methoxytryptamine, reference compound]
- Ki (5HT1 serotonin receptor; [11]): 45.8 nM

SMILES: Oc1ccc2c(c1O)CC[C@@H]1[C@@H]2CCCN1CCc1cccs1 (relative stereo) [trans-33]
- Ki (5HT2 serotonin receptor): 100 nM
- Ki (D2 dopamine receptor): 57 nM
- dopamine receptor binding affinity (D2 dopamine receptor): good dopamine receptor binding affinities
- selectivity for the D2 over the D1 dopamine receptor (D2 dopamine receptor): highly selective for the D2 dopamine receptor over the D1 dopamine receptor
- Ki (5HT1 serotonin receptor; [12]): 1800 nM
- Ki [1, 3]: 19 nM
- α2 receptor binding affinity [1]: high binding affinities for the α2 receptor
- Ki (5HT1A serotonin receptor; [4]): 190 nM
- 5HT1A serotonin receptor binding affinity (5HT1A serotonin receptor): high binding affinities for the 5HT1A serotonin receptor
- Ki [2, 5]: 180 nM

SMILES: Oc1cccc2c1CC[C@@H]1[C@@H]2CCCN1CCc1ccccc1 (single isomer, unassigned) [trans-(+)-25]
- 5HT2 serotonin receptor binding affinity (5HT2 serotonin receptor): high binding affinities for the 5HT2 serotonin receptor
- Ki (5HT2 serotonin receptor; [13]): 9.5 nM
- Ki (D2 dopamine receptor; [14]): 400 nM
- Ki [1, 3]: 440 nM
- Ki (5HT1A serotonin receptor; [15]): 410 nM
- α1 receptor binding affinity [2]: high binding affinities for the α1 receptor
- Ki [2, 5]: 5.5 nM

SMILES: Oc1ccc2c(c1O)CC[C@@H]1[C@H]2CCCN1CCc1ccccc1 (single isomer, unassigned) [cis-(-)-9]
- Ki (D2 dopamine receptor): 54 nM
- dopamine receptor binding affinity (D2 dopamine receptor): good dopamine receptor binding affinities
- selectivity for the D2 over the D1 dopamine receptor (D2 dopamine receptor): highly selective for the D2 dopamine receptor over the D1 dopamine receptor
- Ki [1, 3]: 74 nM
- α2 receptor binding affinity [1]: high binding affinities for the α2 receptor
- Ki [2, 5]: 180 nM

SMILES: CC(C)(C)NCC(O)c1ccc(O)c(CO)c1 (stereo not drawn) [Albuterol]
- Ki (beta-adrenergic receptor; [9]): 2880 nM

SMILES: CN1[C@@H]2CC[C@H]1C[C@@H](OC(=O)c1cc(Cl)cc(Cl)c1)C2 [MDL-72222]
- Ki (5HT3 serotonin receptor; read-out: Ki characterizing the 5HT3 assay, assay characterization): 0.3 nM
- Ki (5HT3 serotonin receptor; [7]): 7.2 nM

SMILES: Oc1cccc2c1CC[C@H]1[C@H]2CCCN1CCc1ccccc1 (relative stereo) [trans-25, Trans-7-hydroxy-4-phenethyl-1,2,3,4,4a,5,6,10b-octahydrobenzo[f]quinoline]
- 5HT2 serotonin receptor binding affinity (5HT2 serotonin receptor): high binding affinities for the 5HT2 serotonin receptor
- Ki (5HT2 serotonin receptor; [13]): 27 nM
- Ki (D2 dopamine receptor): 0.87 nM
- dopamine receptor binding affinity (D2 dopamine receptor): good dopamine receptor binding affinities
- selectivity for the D2 over the D1 dopamine receptor (D2 dopamine receptor): highly selective for the D2 dopamine receptor over the D1 dopamine receptor
- Ki (5HT1 serotonin receptor; [12]): 470 nM
- Ki [1, 3]: 0.22 nM
- α2 receptor binding affinity [1]: high binding affinities for the α2 receptor
- α1 receptor binding affinity [2]: high binding affinities for the α1 receptor
- Ki [2, 5]: 4.5 nM
- Ki (D2 receptor): 37 ± 9 nM
- Ratio of +:- Gpp(NH)p (D2 receptor; Table XV): 34.7
- Ki (D2 receptor; [8]): 1270 ± 1640 nM
- D2 agonist/antagonist assessment (D2 receptor): appear to be agonists
- effect of GTP on D2 receptor binding (D2 receptor): D2 receptor binding was enhanced by the addition of GTP
- Ki (D1 dopamine receptor): 5100 nM

SMILES: Clc1cccc(Cl)c1N=C1NCCN1 [Clonidine, reference compound]
- Ki [1, 10]: 14 nM

SMILES: Oc1ccc2c(c1O)CC[C@@H]1[C@@H]2CCCN1CCc1cccs1 (relative stereo) [(-)-trans-33]
- 5HT2 serotonin receptor binding affinity (5HT2 serotonin receptor): high binding affinities for the 5HT2 serotonin receptor

SMILES: COCCc1ccc(OCC(O)CNC(C)C)cc1 (stereo not drawn) [Metoprotol]
- Ki (beta-adrenergic receptor; [9]): 45 nM

SMILES: Oc1ccc2c(c1O)CC[C@H]1[C@H]2CCCN1CCc1ccccc1 (single isomer, unassigned) [trans-(+)-9, Trans-(+)7,8-dihydroxy-4-phenethyl-1,2,3,4,4a,5,6, 10b-octahydrobenzo[f]quinoline]
- Ki (D2 dopamine receptor; [14]): 2500 nM
- Ki [1, 3]: 550 nM
- Ki (5HT1A serotonin receptor; [15]): 910 nM
- α1 receptor binding affinity [2]: high binding affinities for the α1 receptor
- Ki [2, 5]: 53 nM

SMILES: CCN(CC)CCNC(=O)c1cc(Cl)c(N)cc1OC [Metoclopramide]
- Ki (5HT3 serotonin receptor; [7]): 191 nM
